One assay deals with T1, EGFR L858R-T790M (Homo sapiens, UniProt P00533, L858R/T790M).
T1 construct: NCI-H1975 (harboring EGFR heterozygous L858R-T790M mutations); host or cells: NCI-H1975
T1 sequence (P00533 25-1210 T790M/L858R): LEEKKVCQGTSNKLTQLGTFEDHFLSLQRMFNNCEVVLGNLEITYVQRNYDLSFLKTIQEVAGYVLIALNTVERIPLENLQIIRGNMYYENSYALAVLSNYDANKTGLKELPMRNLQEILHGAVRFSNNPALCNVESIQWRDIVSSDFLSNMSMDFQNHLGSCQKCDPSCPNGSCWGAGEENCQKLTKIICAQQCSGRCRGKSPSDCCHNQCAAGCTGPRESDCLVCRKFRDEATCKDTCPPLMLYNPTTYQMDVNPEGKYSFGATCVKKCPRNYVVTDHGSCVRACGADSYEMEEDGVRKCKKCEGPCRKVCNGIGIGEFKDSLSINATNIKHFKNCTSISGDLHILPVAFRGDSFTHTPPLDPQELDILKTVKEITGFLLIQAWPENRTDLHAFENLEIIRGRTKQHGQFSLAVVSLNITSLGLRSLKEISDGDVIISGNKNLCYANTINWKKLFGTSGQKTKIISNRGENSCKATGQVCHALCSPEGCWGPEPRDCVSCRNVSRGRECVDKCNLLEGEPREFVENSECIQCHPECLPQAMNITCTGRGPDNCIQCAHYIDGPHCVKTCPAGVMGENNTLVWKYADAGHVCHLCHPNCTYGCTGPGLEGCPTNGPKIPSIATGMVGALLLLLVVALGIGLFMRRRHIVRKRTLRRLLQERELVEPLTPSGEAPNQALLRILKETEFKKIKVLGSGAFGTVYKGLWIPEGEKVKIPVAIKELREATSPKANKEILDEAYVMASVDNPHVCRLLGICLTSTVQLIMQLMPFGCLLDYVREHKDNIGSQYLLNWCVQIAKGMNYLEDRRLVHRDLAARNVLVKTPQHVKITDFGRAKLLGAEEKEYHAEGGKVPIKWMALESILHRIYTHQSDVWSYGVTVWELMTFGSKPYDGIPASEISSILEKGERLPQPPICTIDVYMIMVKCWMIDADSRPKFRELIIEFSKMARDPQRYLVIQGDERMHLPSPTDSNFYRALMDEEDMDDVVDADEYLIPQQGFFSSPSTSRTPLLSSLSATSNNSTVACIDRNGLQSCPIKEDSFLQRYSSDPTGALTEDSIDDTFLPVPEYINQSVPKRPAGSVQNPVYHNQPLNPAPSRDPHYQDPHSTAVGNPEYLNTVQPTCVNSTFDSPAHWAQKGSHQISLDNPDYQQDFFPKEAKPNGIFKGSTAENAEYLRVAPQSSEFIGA
Description: EGFR degradation, Total EGFR (L858R-specific) HTRF, NCI-H1975. The note with it: Table 9A; NCI-H1975 cells, 6 hours, Total EGFR HTRF; read-out: H1975 EGFR DC50. The format is cell-based. The method, boiled down: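 FRET signal from HTRF kits measured phospho-EGFR at pY1068 or total EGFR after 6 h treatment at 37 °C. Compounds ran as 11-point half-log dilutions from 10 μM in duplicate, in cells in phenol red-free RPMI with 10% FBS. Concentrations giving 50% inhibition or degradation were reported as IC50 or DC50.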
In the case of `O=C1CCC(N2Cc3c(OC4CCN(C(=O)CCCN5CCN(c6ccc(-c7ccc8cn(C(C(=O)Nc9nccs9)c9ncn%10c9CCC%10)nc8c7F)cn6)CC5)CC4)cccc3C2=O)C(=O)N1` (racemic) [Compound 62, (2RS)-2-(6,7-Dihydro-5H-pyrrolo[1,2-c]imidazol-1-yl)-2-[7-fluoro-6-[6-[4-[4-oxo-4-[4-[1-oxo-2-[(3RS)-2,6-dioxo-3-piperidyl]isoindolin-4-yl]oxy-1-piperidyl]butyl]piperazin-1-yl]-3-pyridyl]indazol-2-yl]-N-thiazol-2-yl-acetamide], the DC50 is under 50 nM.

For the compound `O=C1CCC(Nc2ccc(C3CCN(CC(=O)N4CCN(c5ccc(-c6cc(F)c7c(c6)C(=O)N(C(C(=O)Nc6nccs6)c6ncn8c6CCC8)C7)cc5)CC4)CC3)cc2F)C(=O)N1` (stereo not drawn) [Compound 13, 2-(6,7-dihydro-5H-pyrrolo[1,2-c]imidazol-1-yl)-2-[6-[4-[4-[2-[4-[4-[(2,6-dioxo-3-piperidyl)amino]-3-fluoro-phenyl]-1-piperidyl]acetyl]piperazin-1-yl]phenyl]-4-fluoro-1-oxo-isoindolin-2-yl]-N-thiazol-2-yl-acetamide], the DC50 fell in the range of 50 to 150 nM.

Turning to `O=C1CCC(Oc2ccc(N3CCN(CC(=O)N4CCC(NC(=O)c5ccc(C#Cc6cc(F)c7c(c6)C(=O)N(C(C(=O)Nc6nccs6)c6ncn8c6CCC8)C7)cn5)CC4)CC3)cc2)C(=O)N1` (stereo not drawn) [Compound 51, 5-[2-[2-[1-(6,7-dihydro-5H-pyrrolo[1,2-c]imidazol-1-yl)-2-oxo-2-(thiazol-2-ylamino)ethyl]-7-fluoro-3-oxo-isoindolin-5-yl]ethynyl]-N-[1-[2-[4-[4-[(2,6-dioxo-3-piperidyl)oxy]phenyl]piperazin-1-yl]acetyl]-4-piperidyl]pyridine-2-carboxamide], the DC50 is under 50 nM.

Turning to `O=C1CC[C@H](Nc2ccc(C3CCN(CC(=O)N4CC[C@H](Oc5ccc(-c6cc(F)c7c(c6)C(=O)N(C(C(=O)Nc6nccs6)c6ncn8c6CCC8)C7)cc5)C4)CC3)cc2)C(=O)N1` (stereo partly drawn) [Compound 42, 2-(6,7-dihydro-5H-pyrrolo[1,2-c]imidazol-1-yl)-2-[6-[4-[(3S)-1-[2-[4-[4-[[(3S)-2,6-dioxo-3-piperidyl]amino]phenyl]-1-piperidyl]acetyl]pyrrolidin-3-yl]oxyphenyl]-4-fluoro-1-oxo-isoindolin-2-yl]-N-thiazol-2-yl-acetamide], the DC50 is under 50 nM.

The same assay, now with this note: Table 9B; NCI-H1975 cells, 6 hours, Total EGFR HTRF; read-out: H1975 EGFR DC50.
As to `O=C1CCC(Nc2ccc(N3CCC(O)(CC(=O)N4CCC5(CC4)CN(c4ccc(-c6cc(F)c7c(c6)C(=O)N(C(C(=O)Nc6nccs6)c6ncn8c6CCC8)C7)cc4)C5)CC3)c(Cl)c2)C(=O)N1` (single isomer, unassigned; isomer 1) [Compound 138, 2-[6-[4-[7-[2-[1-[2-chloro-4-[[2,6-dioxo-3-piperidyl]amino]phenyl]-4-hydroxy-4-piperidyl]acetyl]-2,7-diazaspiro[3.5]nonan-2-yl]phenyl]-4-fluoro-1-oxo-isoindolin-2-yl]-2-(6,7-dihydro-5H-pyrrolo[1,2-c]imidazol-1-yl)-N-thiazol-2-yl-acetamide, isomer 1], the DC50 was under 50 nM.

Turning to `O=C1CCC(Nc2ccc(CC(=O)N3CCC(NC(=O)c4ccc(C#Cc5cc(F)c6c(c5)C(=O)N(C(C(=O)Nc5nccs5)c5ncn7c5CCC7)C6)cn4)CC3)cc2)C(=O)N1` (stereo not drawn) [Compound 93, 5-[2-[2-[1-(6,7-dihydro-5H-pyrrolo[1,2-c]imidazol-1-yl)-2-oxo-2-(thiazol-2-ylamino)ethyl]-7-fluoro-3-oxo-isoindolin-5-yl]ethynyl]-N-[1-[2-[4-[(2,6-dioxo-3-piperidyl)amino]phenyl]acetyl]-4-piperidyl]pyridine-2-carboxamide], the 50% degradation concentration (DC50) is under 50 nM.

In the case of `O=C1CC[C@H](Nc2ccc(N3CCC(O)(CC(=O)N4CC5(C4)CN(c4ccc(-c6cc(F)c7cn(C(C(=O)Nc8nccs8)c8ncn9c8CCC9)nc7c6)cc4)C5)CC3)c(F)c2)C(=O)N1` (stereo partly drawn) [Compound 77, 2-(6,7-dihydro-5H-pyrrolo[1,2-c]imidazol-1-yl)-2-[6-[4-[2-[2-[1-[4-[[(3S)-2,6-dioxo-3-piperidyl]amino]-2-fluoro-phenyl]-4-hydroxy-4-piperidyl]acetyl]-2,6-diazaspiro[3.3]heptan-6-yl]phenyl]-4-fluoro-indazol-2-yl]-N-thiazol-2-yl-acetamide], the DC50 was under 50 nM.

For `O=C1CCN(c2ccc(N3CCC(O)(CC(=O)N4CC5(CCN(c6ccc(-c7cc(F)c8c(c7)C(=O)N(C(C(=O)Nc7nccs7)c7ncn9c7CCC9)C8)cc6)CC5)C4)CC3)c(Cl)c2)C(=O)N1` (stereo not drawn) [Compound 172, 2-[6-[4-[2-[2-[1-[2-chloro-4-(2,4-dioxohexahydropyrimidin-1-yl)phenyl]-4-hydroxy-4-piperidyl]acetyl]-2,7-diazaspiro[3.5]nonan-7-yl]phenyl]-4-fluoro-1-oxo-isoindolin-2-yl]-2-(6,7-dihydro-5H-pyrrolo[1,2-c]imidazol-1-yl)-N-thiazol-2-yl-acetamide], the DC50 was under 50 nM.

For `O=C1CCC(Nc2cnc(N3CCC(O)(CC(=O)N4CC5(C4)CN(c4ccc(-c6cc(F)c7c(c6)C(=O)N(C(C(=O)Nc6nccs6)c6ncn8c6CCC8)C7)cc4)C5)CC3)c(F)c2)C(=O)N1` (single isomer, unassigned; isomer 1) [Compound 139, 2-(6,7-dihydro-5H-pyrrolo[1,2-c]imidazol-1-yl)-2-[6-[4-[2-[2-[1-[5-[[2,6-dioxo-3-piperidyl]amino]-3-fluoro-2-pyridyl]-4-hydroxy-4-piperidyl]acetyl]-2,6-diazaspiro[3.3]heptan-6-yl]phenyl]-4-fluoro-1-oxo-isoindolin-2-yl]-N-thiazol-2-yl-acetamide, isomer 1], the DC50 is under 50 nM.

Consider `O=C1CC[C@H](Nc2ccc(N3CCC(O)(CC(=O)N4CCC(n5cc(-c6cc(F)c7c(c6)C(=O)N(C(C(=O)Nc6nccs6)c6ncn8c6CCC8)C7)cn5)CC4)CC3)c(F)c2)C(=O)N1` (stereo partly drawn) [Compound 142, 2-(6,7-dihydro-5H-pyrrolo[1,2-c]imidazol-1-yl)-2-[6-[1-[1-[2-[1-[4-[[(3S)-2,6-dioxo-3-piperidyl]amino]-2-fluoro-phenyl]-4-hydroxy-4-piperidyl]acetyl]-4-piperidyl]pyrazol-4-yl]-4-fluoro-1-oxo-isoindolin-2-yl]-N-thiazol-2-yl-acetamide], for which the DC50 is under 50 nM.

As for `NC1(CC(=O)N2CC3(C2)CN(c2ccc(-c4cc(F)c5c(c4)C(=O)N(C(C(=O)Nc4nccs4)c4ncn6c4CCC6)C5)cc2)C3)CCN(c2ccc(NC3CCC(=O)NC3=O)cc2F)CC1` (stereo not drawn) [Compound 162, 2-[6-[4-[2-[2-[4-amino-1-[4-[(2,6-dioxo-3-piperidyl)amino]-2-fluoro-phenyl]-4-piperidyl]acetyl]-2,6-diazaspiro[3.3]heptan-6-yl]phenyl]-4-fluoro-1-oxo-isoindolin-2-yl]-2-(6,7-dihydro-5H-pyrrolo[1,2-c]imidazol-1-yl)-N-thiazol-2-yl-acetamide], the DC50 is under 50 nM.

Take `O=C1CCC(Nc2ccc(N3CCC(O)(CC(=O)N4CCC5(C4)CN(c4ccc(-c6cc(F)c7c(c6)C(=O)N(C(C(=O)Nc6nccs6)c6ncn8c6CCC8)C7)cc4)C5)CC3)c(F)c2)C(=O)N1` (stereo not drawn) [Compound 115, 2-(6,7-dihydro-5H-pyrrolo[1,2-c]imidazol-1-yl)-2-[6-[4-[7-[2-[1-[4-[(2,6-dioxo-3-piperidyl)amino]-2-fluoro-phenyl]-4-hydroxy-4-piperidyl]acetyl]-2,7-diazaspiro[3.4]octan-2-yl]phenyl]-4-fluoro-1-oxo-isoindolin-2-yl]-N-thiazol-2-yl-acetamide]: the DC50 was under 50 nM.

`Cn1nc(N2CCC(=O)NC2=O)c2ccc(C3CCN(C(=O)CN4CC5(C4)CN(c4ccc(-c6cc(F)c7c(c6)C(=O)N(C(C(=O)Nc6nccs6)c6ncn8c6CCC8)C7)cn4)C5)CC3(F)F)cc21` (stereo not drawn) [Compound 118, 2-(6,7-dihydro-5H-pyrrolo[1,2-c]imidazol-1-yl)-2-(6-(6-(6-(2-(4-(3-(2,4-dioxotetrahydropyrimidin-1(2H)-yl)-1-methyl-1H-indazol-6-yl)-3,3-difluoropiperidin-1-yl)-2-oxoethyl)-2,6-diazaspiro[3.3]heptan-2-yl)pyridin-3-yl)-4-fluoro-1-oxoisoindolin-2-yl)-N-(thiazol-2-yl)acetamide]: the DC50 was under 50 nM.

Turning to `Cn1nc(N2CCC(=O)NC2=O)c2ccc(N3CCC(O)(CC(=O)N4CC5(C4)CN(c4ccc(-c6cc(F)c7c(c6)C(=O)N(C(C(=O)Nc6nccs6)c6ncn8c6CCC8)C7)cc4)C5)CC3)cc21` (stereo not drawn) [Compound 109, 2-(6,7-dihydro-5H-pyrrolo[1,2-c]imidazol-1-yl)-2-(6-(4-(6-(2-(1-(3-(2,4-dioxotetrahydropyrimidin-1(2H)-yl)-1-methyl-1H-indazol-6-yl)-4-hydroxypiperidin-4-yl)acetyl)-2,6-diazaspiro[3.3]heptan-2-yl)phenyl)-4-fluoro-1-oxoisoindolin-2-yl)-N-(thiazol-2-yl)acetamide], the DC50 is under 50 nM.

With `O=C1CC[C@H](Nc2ccc(N3CCC(O)(CC(=O)N4CC5(C4)CN(c4ccc(-c6cc(F)c7c(c6)C(=O)N(C(C(=O)Nc6nccs6)c6ncn8c6C[C@@H](F)C8)C7)cc4)C5)CC3)c(F)c2)C(=O)N1` (stereo partly drawn) [Compound 131, 2-[6-[4-[2-[2-[1-[4-[[(3S)-2,6-dioxo-3-piperidyl]amino]-2-fluoro-phenyl]-4-hydroxy-4-piperidyl]acetyl]-2,6-diazaspiro[3.3]heptan-6-yl]phenyl]-4-fluoro-1-oxo-isoindolin-2-yl]-2-[(6R)-6-fluoro-6,7-dihydro-5H-pyrrolo[1,2-c]imidazol-1-yl]-N-thiazol-2-yl-acetamide], the DC50 was under 50 nM.

These data come from patent publication US20240158418A1 (C4 Therapeutics, Inc., priority 2021, published 2024).
